Measurements taken from US9840478B2 (MERCK SHARP & DOHME CORP., priority 2013, dated 2017).

System: HIV-1 (H9IIIB strain)
Test: Cell-based HIV infection assay using a reporter (Cell-Based), MT4-GFP cells
Details: Human immunodeficiency virus 1, MT4-GFP cells infected with HIV-1 H9IIIB; 50% normal human serum; mean of at least two independent experiments; read-out: Cell-based IP
How it was run: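 MT4-GFP cells (HIV LTR-driven GFP) infected 24 h with HIV-1 H9IIIB at low MOI, then washed and plated with compounds in RPMI + 50% normal human serum, 0.4% DMSO final. Green cells counted at 24 and 48 h; R0 = 48 h/24 h ratio, inhibition normalized to DMSO and triple-drug control; IC50 from 4-parameter fit.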

| SMILES | IC50 [nM] |
| --- | --- |
| C[C@H]1CNC[C@H](CCc2c(F)cncc2NC(=O)[C@@H](N)[C@@H](c2ccc(Cl)cc2)C2CCOCC2)N1S(=O)(=O)c1ccccc1 [Example 277, (βR)-4-chloro-N-(5-fluoro-4-{2-[(2S,6S)-6-methyl-1-(phenylsulfonyl)piperazin-2-yl]ethyl}pyridin-3-yl)-β-(tetrahydro-2H-pyran-4-yl)-L-phenylalaninamide] | 15 |
| C[C@H]1CNC[C@H](CCc2c(F)cccc2NC(=O)[C@@H](N)C2(c3cc(F)cc(F)c3)CCOCC2)N1S(=O)(=O)c1ccccc1 [Example 278, (2S)-2-amino-2-[4-(3,5-difluorophenyl)tetrahydro-hydro-2H-pyran-4-yl]-N-(3-fluoro-2-{2-[(2S,6S)-6-methyl-1-(phenylsulfonyl)piperazin-2-yl]ethyl}phenyl) ethanamide] | 140 |
| COC(=O)N[C@H](C(=O)Nc1cncc(F)c1CC[C@H]1CNC[C@@H](C)N1S(=O)(=O)c1ccccc1)[C@@H](c1ccc(Cl)cc1)C1CCOCC1 [Example 279, (βR)-4-chloro-N-(5-fluoro-4-{2-[(2S,6R)-6-methyl-1-(phenylsulfonyl)piperazin-2-yl]ethyl}pyridin-3-yl)-Nα-(methoxycarbonyl)-β-(tetrahydro-2H-pyran-4-yl)-L-phenylalaninamide] | 16 |
| C[C@@H]1CNC[C@H](CCc2c(F)cncc2NC(=O)[C@@H](N)[C@@H](c2ccc(Cl)cc2)C2CCOCC2)N1S(=O)(=O)c1ccccc1 [Example 280, (βR)-4-chloro-N-(5-fluoro-4-{2-[(2S,6R)-6-methyl-1-(phenylsulfonyl)piperazin-2-yl]ethyl}pyridin-3-yl)-β-(tetrahydro-2H-pyran-4-yl)-L-phenylalaninamide] | 16 |
| COC(=O)N[C@H](C(=O)Nc1cncc(F)c1CC[C@H]1CNC[C@@H](C)N1S(=O)(=O)c1ccc(Cl)cc1)[C@@H](c1ccc(Cl)cc1)C1CCOCC1 [Example 281, (βR)-4-chloro-N-[4-(2-{(2S,6R)-1-[(4-chlorophenyl)sulfonyl]-6-methylpiperazin-2-yl}ethyl)-5-fluoropyridin-3-yl]-Nα-(methoxycarbonyl)-β-(tetrahydro-2H-pyran-4-yl)-L-phenylalaninamide] | 13 |
| COC(=O)N[C@H](C(=O)Nc1cncc(F)c1CC[C@H]1CNC[C@H](C)N1S(=O)(=O)c1ccc(Cl)cc1)[C@@H](c1ccc(Cl)cc1)C1CCOCC1 [Example 282, (βR)-4-chloro-N-[4-(2-{(2S,6S)-1-[(4-chlorophenyl)sulfonyl]-6-methylpiperazin-2-yl}ethyl)-5-fluoropyridin-3-yl]-Nα-(methoxycarbonyl)-β-(tetrahydro-2H-pyran-4-yl)-L-phenylalaninamide] | 11 |
| COC(=O)N[C@H](C(=O)Nc1cccc(F)c1CC[C@H]1CNC[C@@H](C)N1S(=O)(=O)c1ccccc1)[C@@H](c1cc(F)cc(F)c1)C1CCOCC1 [Example 283, (βR)-3,5-difluoro-N-(3-fluoro-2-{2-[(2S,6R)-6-methyl-1-(phenylsulfonyl)piperazin-2-yl]ethyl}phenyl)-Nα-(methoxycarbonyl)-β-(tetrahydro-2H-pyran-4-yl)-L-phenylalaninamide] | 14 |
| C[C@@H]1CNC[C@H](CCc2c(F)cccc2NC(=O)[C@@H](N)[C@@H](c2cc(F)cc(F)c2)C2CCOCC2)N1S(=O)(=O)c1ccccc1 [Example 284, (βR)-3,5-difluoro-N-(3-fluoro-2-{2-[(2S,6R)-6-methyl-1-(phenylsulfonyl)piperazin-2-yl]ethyl}phenyl)-β-(tetrahydro-2H-pyran-4-yl)-L-phenylalaninamide] | 40 |
| COC(=O)N[C@H](C(=O)Nc1cccc(F)c1CC[C@H]1CNC[C@@H](C)N1S(=O)(=O)c1ccccc1)C1(c2cc(F)cc(F)c2)CCOCC1 [Example 285, methyl {(1S)-1-[4-{3,5-difluorophenyl)tetrahydro-2H-pyran-4-yl]-2-[(3-fluoro-2-{2-[(2S,6R)-6-methyl-1-(phenylsulfonyl)piperazin-2-yl]ethyl}phenyl)amino]-2-oxoethyl}carbamate] | 29 |
| COC(=O)N[C@H](C(=O)Nc1cccc(F)c1CC[C@H]1CNC[C@H](C)N1S(=O)(=O)c1ccccc1)C1(c2cc(F)cc(F)c2)CCOCC1 [Example 286, methyl {(1S)-1-[4-(3,5-difluorophenyl)tetrahydro-2H-pyran-4-yl]-2-[(3-fluoro-2-{2-[(2S,6S)-6-methyl-1-(phenylsulfonyl)piperazin-2-yl]ethyl}phenyl)amino]-2-oxoethyl}carbamate] | 33 |
| C[C@@H]1CNC[C@H](CCc2c(F)cccc2NC(=O)[C@@H](N)C2(c3cc(F)cc(F)c3)CCOCC2)N1S(=O)(=O)c1ccccc1 [Example 287, (2S)-2-amino-2-[4-(3,5-difluorophenyl)tetrahydro-2H-pyran-4-yl]-N-(3-fluoro-2-{2-[(2S,6R)-6-methyl-1-(phenylsulfonyl)piperazin-2-yl]ethyl}phenyl)ethanamide] | 91 |
| C[C@@H]1CNC[C@H](CCc2c(F)cccc2NC(=O)[C@@H](N)[C@@H](c2ccc(F)c(F)c2)C2CCOCC2)N1S(=O)(=O)c1ccccc1 [Example 288, (βR)-3,4-difluoro-N-(3-fluoro-2-{2-[(2S,6R)-6-methyl-1-(phenylsulfonyl)piperazin-2-yl]ethyl}phenyl)-β-(tetrahydro-2H-pyran-4-yl)-L-phenylalaninamide] | 23 |
| C[C@H]1CNC[C@H](CCc2c(F)cccc2NC(=O)[C@@H](N)[C@@H](c2ccc(F)c(F)c2)C2CCOCC2)N1S(=O)(=O)c1ccccc1 [Example 289, (βR)-3,4-difluoro-N-(3-fluoro-2-{2-[(2S,6S)-6-methyl-1-(phenylsulfonyl)piperazin-2-yl]ethyl}phenyl)-β-(tetrahydro-2H-pyran-4-yl)-L-phenylalaninamide] | 23 |
| COC(=O)N[C@H](C(=O)Nc1cccc(F)c1CC[C@H]1CNC[C@@H](C)N1S(=O)(=O)c1ccccc1)C1(c2ccc(F)c(F)c2)CCOCC1 [Example 290, methyl {(1S)-1-[4-(3,4-difluorophenyl)tetrahydro-2H-pyran-4-yl]-2-[(3-fluoro-2-{2-[(2S,6R)-6-methyl-1-(phenylsulfonyl)piperazin-2-yl]ethyl}phenyl)amino]-2-oxoethyl}carbamate] | 15 |
| C[C@@H]1CNC[C@H](CCc2c(F)cccc2NC(=O)[C@@H](N)C2(c3ccc(F)c(F)c3)CCOCC2)N1S(=O)(=O)c1ccccc1 [Example 291, (2S)-2-amino-2-[4-(3,4-difluorophenyl)tetrahydro-2H-pyran-4-yl]-N-(3-fluoro-2-{2-[(2S,6R)-6-methyl-1-(phenylsulfonyl)piperazin-2-yl]ethyl}phenyl)ethanamide] | 100 |
| C[C@H]1CNC[C@H](CCc2c(F)cccc2NC(=O)[C@@H](N)C2(c3ccc(F)c(F)c3)CCOCC2)N1S(=O)(=O)c1ccccc1 [Example 292, (2S)-2-amino-2-[4-(3,4-difluorophenyl)tetrahydro-2H-pyran-4-yl]-N-(3-fluoro-2-{2-[(2S,6S)-6-methyl-1-(phenylsulfonyl)piperazin-2-yl]ethyl}phenyl)ethanamide] | 130 |
| COC(=O)N[C@H](C(=O)Nc1cccc(F)c1CC[C@H]1CNC[C@@H](C)N1S(=O)(=O)c1ccccc1)[C@@H](c1ccc(F)c(F)c1)C1CCOCC1 [Example 293, (βR)-3,4-difluoro-N-(3-fluoro-2-{2-[(2S,6R)-6-methyl-1-(phenylsulfonyl)piperazin-2-yl]ethyl}phenyl)-Nα-(methoxycarbonyl)-β-(tetrahydro-2H-pyran-4-yl)-L-phenylalaninamide] | 8.7 |
| C[C@H]1CNC[C@H](CCc2c(F)cccc2NC(=O)[C@@H](N)[C@@H](c2cc(F)cc(F)c2)C2CCOCC2)N1S(=O)(=O)c1ccccc1 [Example 294, (βR)-3,5-difluoro-N-(3-fluoro-2-{2-[(2S,6S)-6-methyl-1-(phenylsulfonyl)piperazin-2-yl]ethyl}phenyl)-β-(tetrahydro-2H-pyran-4-yl)-L-phenylalaninamide] | 40 |
| COC(=O)N[C@H](C(=O)Nc1cccc(F)c1CC[C@H]1CNC[C@H](C)N1S(=O)(=O)c1ccccc1)[C@@H](c1ccc(F)c(F)c1)C1CCOCC1 [Example 295, (βR)-3,4-difluoro-N-(3-fluoro-2-{2-[(2S,6S)-6-methyl-1-(phenylsulfonyl)piperazin-2-yl]ethyl}phenyl)-Nα-(methoxycarbonyl)-β-(tetrahydro-2H-pyran-4-yl)-L-phenylalaninamide] | 4.2 |
| COC(=O)N[C@H](C(=O)Nc1cccc(F)c1CC[C@H]1CNC[C@H](C)N1S(=O)(=O)c1ccccc1)[C@@H](c1cc(F)cc(F)c1)C1CCOCC1 [Example 296, (βR)-3,5-difluoro-N-(3-fluoro-2-{2-[(2S,6S)-6-methyl-1-(phenylsulfonyl)piperazin-2-yl]ethyl}phenyl)-Nα-(methoxycarbonyl)-β-(tetrahydro-2H-pyran-4-yl)-L-phenylalaninamide] | 9.9 |
| COC(=O)N[C@H](C(=O)Nc1cccc(F)c1CC[C@H]1CNC[C@H](C)N1S(=O)(=O)c1ccccc1)C1(c2ccc(F)c(F)c2)CCOCC1 [Example 297, methyl {(1S)-1-[4-(3,4-difluorophenyl)tetrahydro-2H-pyran-4-yl]-2-[(3-fluoro-2-{2-[(2S,6S)-6-methyl-1-(phenylsulfonyl)piperazin-2-yl]ethyl}phenyl)amino]-2-oxoethyl}carbamate] | 16 |
| C[C@@H]1CNC[C@H](CCc2c(F)cncc2NC(=O)[C@@H](N)[C@@H](c2ccc(Cl)cc2)C2CCOCC2)N1S(=O)(=O)c1ccc(Cl)cc1 [Example 298, (βR)-4-chloro-N-[4-(2-{(2S,6R)-1-[(4-chlorophenyl)sulfonyl]-6-methylpiperazin-2-yl}ethyl)-5-fluoropyridin-3-yl]-β-(tetrahydro-2H-pyran-4-yl)-L-phenylalaninamide] | 36 |
